What was measured:
[1] = Proton NMR spectroscopy of solvent and buffer effects on structure and dynamics in solution; format: physicochemical
Description: FIG. 10. Proton NMR spectrum of acylated GLP-1 with different additives at pH 7.9. N-terminal histidine signals of the imidazol sidechain are observed at approx 7.80 ppm and 7.00 ppm. The linewidth and position reflects the reduced flexibility of the N-terminal. NMR samples were prepared with 6 mg/ml acylated GLP-1 at pH 7.9 dissolved in 90%/10% H2O/D2O. NMR spectra were recorded at 600 MHz using a Varian Inova 600 MHz NMR instrument using 5 mm samples tubes. Sample volumes were 800 ul and spectra were measured at 27 degrees Celsius
FIG. 11. Amide protons of glu-9 (8.65 ppm) and gly-10 (8.42 ppm) under the same conditions as in FIG. 10. More intense amide proton signals reflect that these protons are relatively better shielded structurally from exchange with the water.
Proton NMR spectroscopy of proteins in solutions has become a powerful technique to study structure and dynamics of a pure protein in solution (Wüthrich, K, “NMR of Proteins and Nucleic Acids”, (1986), ISBN 0-471-82893-9). Each proton (or proton group) in a protein will give rise to a resonance peak at a frequency which depends on the chemical and physical environment in the vicinity of each proton (or proton group) in the protein. A skilled artisan in the field of protein NMR spectroscopy will be able to assign most of the resonance peaks of a proton NMR spectrum of a protein to specific protons (or proton groups) in the protein given that the actual behavior of the protein in solution give rise to a well resolved proton NMR spectrum (well known to the skilled artisan in the field). The line width of the resonance peaks in the protein NMR spectrum reflects to some extend the size and dynamic properties of the protein in solution.
Aqueous solution of acylated GLP-1 at concentrations between 1 and 30 mg/ml, with or without buffers in the pH range 7.0 to 8.2 give rise to NMR spectra that to a high extend allow the afore mentioned resonance assignment. Thus several resonances of the NMR spectrum of this peptide can be assigned to specific atomic groups in the peptide. Recording NMR spectra of acylated GLP-1 under the conditions mentioned above but with different buffer substances in the solution allows a direct comparison of the structural and dynamical changes that acylated GLP-1 undergo as different buffers are applied.

[2] = ThT fluorescence assay of fibril formation (physical stability); format: physicochemical
Description: FIG. 1. ThT fluorescence assay of fibril formation in acylated GLP-1 samples. The samples contain 6 mg/ml acylated GLP-1, 5 μM ThT dissolved in water and adjusted to the stated pH. Experimental conditions are described in “Examples”. Briefly, the samples were incubated at 40° C. and shaken with 960 rpm in an Ascent Fluoroskan fluorescence plate reader. All data points are from the same experiment (i.e. all samples are from the same microtiterplate) and are means of eight replica and shown with standard deviations as error bars. Furthermore, these values at 20 and 40 hours are tabulated for each sample.
Low physical stability of a peptide may lead to amyloid fibril formation, which is observed as well-ordered, thread-like macromolecular structures in the sample eventually resulting in gel formation. This has traditionally been measured by visual inspection of the sample. However, that kind of measurement is very subjective and depending on the observer. Therefore, the application of a small molecule indicator probe is much more advantageous. Thioflavin T (ThT) is such a probe and has a distinct fluorescence signature when binding to fibrils [Naiki et al. (1989) Anal. Biochem. 177, 244-249; LeVine (1999) Methods. Enzymol. 309, 274-284].
The time course for fibril formation can be described by a sigmoidal curve with the following expression [Nielsen et al. (2001) Biochemistry 40, 6036-6046]:
Here, F is the ThT fluorescence at the time t (see FIG. 12). The constant t0 is the time needed to reach 50% of maximum fluorescence. The two important parameters describing fibril formation are the lag-time calculated by t0−2τ and the apparent rate constant kapp=1/τ.
Samples were prepared freshly before each assay. Usually, acylated GLP-1 was dissolved to 6 mg/ml in desired buffer or solvent. The pH of the sample was adjusted to the desired value using appropriate amounts of concentrated NaOH and HClO4. Thioflavin T was added to the samples from a 1 mM stock solution in H2O to a final concentration of 5 μM.
Sample aliquots of 100 μl were placed in a 96 well microtiter plate (Packard Opti-Plate™-96, white polystyrene). Usually, eight replica of each sample (corresponding to one test condition) was placed in one column of wells. The plate was sealed with Scotch Pad (Qiagen).
Incubation at given temperature, shaking and measurement of the ThT fluorescence emission were done in a Fluoroskan Ascent FL fluorescence platereader (Thermo Labsystems). Temperature setting is possible up till 45° C., but usually sat at 40° C. The orbital shaking is selectable up till 1200 rpm, but adjusted to 960 rpm with an amplitude of 1 mm in all the presented data. Fluorescence measurement was done using excitation through a 444 nm filter and measurement of emission through a 485 nm filter.
Each run was initiated by incubating the plate at the assay temperature for 10 min. The plate was measured each hour for typically 45 hours. Between each measurement, the plate was shaken and heated as adjusted.
The measurement points were saved in Microsoft Excel format for further processing and curve drawing and fitting was performed using GraphPad Prism. The background emission from ThT in the absence of fibrils was negligible. The data points are typically a mean of eight samples and shown with standard deviation error bars. Only data obtained in the same experiment (i.e. samples on the same plate) are presented in the same graph ensuring a relative measure of fibrillation between experiments.
The data set may be fitted to Eq. (1). However, since full sigmodial curves in this case are not usually achieved during the measurement time, the degree of fibrillation is expressed as ThT fluorescence at 20 and 40 hours, calculated as the mean of the eight samples and shown with the standard deviation.

Substance: Arg^34, Lys^26(N^ε-(γ-Glu(N^α-hexadecanoyl)))-GLP-1(7-37) [acylated GLP-1]
- amide proton resonances of glutamic acid residue 9 and glycine residue 10 ([1]; 8 mM phosphate at pH 7.9 compared to non-buffered, 6 mg/ml): almost disappearance of amides protons resonances
- protection of amide protons of Glu 9 and Gly 10 from water ([1]; aqueous solution without buffer substance versus 8 mM phosphate buffer): relatively more protected from the water molecules
- self-assembly in solution ([1]; concentration range 1 to 30 mg/ml): bundle up in assemblies with several but well defined and limited number of acylated GLP-1 molecules
- order and rigidity of the N-terminal ([1]; non buffered solution or buffered with HEPES, bicine or histidine, pH 7.9): more ordered and rigid
- fibril formation ([2]; 8 mM phosphate, pH8.15): fibril formation is already observed
- fibrillation ([2]; 10 mM BICINE buffer): without significantly increasing the fibrillation compared to water at pH7.89
- fibrillation ([2]; 10 mM HEPES buffer): without significantly increasing the fibrillation compared to water at pH7.89
- physical stability ([2]; 10 mM HEPES pH7.73): as physically stable as in 8 mM phosphate pH8.15
- physical stability ([2]; 10 mM HEPES, pH gradually lowered from pH7.9 to pH7.51): slightly more physically unstable
- physical stability ([2]; 10 mM His, lowering the pH): only marginally less stable
- physical stability ([2]; 10 mM His, pH 7.5): much more physically stable than acylated GLP-1 in non buffered aqueous solution pH7.5
- physical stability ([2]; 10 mM His, pH7.9): same physical stability of acylated GLP-1 as obtained in water at pH7.9
- physical stability ([2]; 10 mM MOPS): more physical stable than a solution in 8 mM phosphate at pH8.14
- fibrillation ([2]; 10 mM NaCl added to solution in water pH 7.9): promotes fibrillation
- physical stability ([2]; 10 mM TES): more physical stable than a solution in 8 mM phosphate at pH8.14
- physical stability ([2]; aqueous solution non buffered or buffered with HEPES or BICINE, versus 8 mM phosphate pH7.92): significantly more physically stable
- physical stability ([2]; dissolved in water rather than phosphate buffer (8 mM), 6 mg/ml, 40° C., 960 rpm): significant increase in physical stability
- fibrillation lag-time ([2]; lowering pH in the interval pH 8.2 to pH 7.5, all examples): shorter and shorter fibrillation lag-times
- tendency to fibril formation ([2]; phosphate lowered from 8 mM to 1 mM at pH7.9): Less tendency to fibril formation
- fibrillation ([2]; water adjusted to pH7.85, incubated 45 hours): No significant fibrillation
- fibrillation ([2]; water adjusted to pH8.14, incubated 45 hours): No significant fibrillation
- physical stability ([2]; water at pH7.53): comparable with 8 mM phosphate pH7.88

— US20100190715A1, “Stable Formulations of Peptides” (Novo Nordisk A/S, priority 2003, published 2010)
